Here are results for 6 molecules from patent publication US20120142720A1, “Phenylethanoic Acid, Phenylpropanoic Acid and Phenylpropenoic Acid Conjugates and Prodrugs of Hydrocodone, Methods of Making and Use Thereof” (KEMPHARM, INC., priority 2009, published 2012).

Series [1] can be described thus: Chemical stability: hydrolysis in 5% NaHCO3. Type of series: physicochemical. The settings on record: 5% NaHCO3, one hour.
Series [2] in a line: Chemical stability: hydrolysis to hydrocodone in 1N HCl. The settings on record: 1 hour.
Series [3] is described as follows: Water solubility / feasibility of intravenous or intranasal dosing. The settings on record: with regard to intravenous or intranasal dosing at oral equivalent doses.
A short description of series [4]: Oral PK profile in rats, plasma hydrocodone and hydromorphone by LC-MS/MS.
Series [5] in a line: Intranasal PK profile in rats, plasma hydrocodone and hydromorphone by LC-MS/MS.
The mark [6] stands for this setting: equivalent to 2 mg/kg freebase hydrocodone, FIG. 7.
The mark [7] stands for this setting: equivalent to 2 mg/kg freebase hydrocodone, FIG. 8.

Regarding `COc1ccc2cc(C(C)C(=O)OC3=CCC4C5Cc6ccc(OC)c7c6C4(CCN5C)C3O7)ccc2c1` (stereo not drawn) [Naproxen-HC, naproxen-hydrocodone], the “initial amount of conjugate hydrolyzed” value was found to be 0% in series [1] (ambient (~20° C.)), 8% in series [1] (oil bath 100° C.), 0% in series [2] (ambient (~20° C.)) and 33% in series [2] (oil bath 100° C.).
As to `COc1ccc2c3c1OC1C(OC(=O)C(C)c4ccc(CC(C)C)cc4)=CCC4C(C2)N(C)CCC314` (stereo not drawn) [Ibu-HC, ibuprofen-hydrocodone], the “initial amount of conjugate hydrolyzed” value in series [1] (ambient (~20° C.)) turned out to be 0%; in series [1] (oil bath 100° C.), 22%. Moreover, in series [3], the water solubility entry is reported as “very low water solubility”. Also, the “hydromorphone AUC compared with Diglycolate-HC” value in series [4] (equivalent of 2 mg/kg hydrocodone freebase, FIG. 6) is “similar”. Further, the “hydrocodone and hydromorphone plasma concentrations compared with unconjugated Hydrocodone.BT” value in series [4] (equivalent to 2 mg/kg freebase hydrocodone, FIG. 9 and FIG. 10) is listed as “similar”. Moreover, the “AUC and Cmax values (hydrocodone and hydromorphone) compared with Hydrocodone.BT” value in series [4] (same dose based on hydrocodone freebase) was “within the range of bioequivalence”. The “hydrocodone plasma concentrations compared with Hydrocodone.BT” value in series [5] (Example 6, FIG. 11) was “significantly lower”. For the same molecule, in series [5] (Example 6, FIG. 12), the “hydromorphone plasma concentration compared with Hydrocodone.BT” value is listed as “very low plasma concentration”. Besides, the “hydrocodone plasma concentrations compared with Adipate-HC” value in series [5] (setting [6]) was “significantly lower”. The “hydromorphone plasma concentration compared with Adipate-HC” value in series [5] (setting [7]) is listed as “very low plasma concentration”.
Turning to `COc1ccc2c3c1OC1C(OC(=O)COCC(=O)O)=CC[C@H]4[C@@H](C2)N(C)CC[C@]314` (stereo partly drawn) [Diglycolate-HC], the water solubility entry in series [3] was “water-soluble”.
`COc1ccc2c3c1OC1C(OC(=O)/C=C/c4ccccc4)=CCC4C(C2)N(C)CCC314` (stereo not drawn) [Cinnamate-HC, cinnamate-hydrocodone]: the “hydrocodone plasma concentrations during subsequent elimination compared with Hydrocodone.BT” value in series [4] (equivalent to 2 mg/kg freebase hydrocodone, FIG. 9) is recorded as “similar”.
Turning to `COc1ccc2c3c1OC1C(OC(=O)CCCCC(=O)O)=CC[C@H]4[C@@H](C2)N(C)CC[C@]314` (stereo partly drawn) [Adipate-HC], the “initial amount of conjugate hydrolyzed” value in series [1] (ambient (~20° C.)) is listed as 3%; in series [1] (oil bath 100° C.), 100%; in series [2] (ambient (~20° C.)), 13%; in series [2] (oil bath 100° C.) it was 100%. In series [3], the water solubility result is “water-soluble”. In addition, the “hydrocodone AUC, higher than Ibu-HC” value in series [5] (setting [6]) is “approximately 170%”. Also, in series [5] (setting [6]), the “hydrocodone Cmax, higher than Ibu-HC” value is approximately 245%. Moreover, the “hydromorphone AUC, higher than Ibu-HC” value in series [5] (setting [7]) is listed as “approximately 940%”. Moreover, the “hydromorphone Cmax, higher than Ibu-HC” value in series [5] (setting [7]) is recorded as ~1,010%.
Turning to `COc1ccc2c3c1O[C@H]1C(=O)CC[C@H]4[C@@H](C2)N(C)CC[C@]314.O=C(O)C(O)C(O)C(=O)O` [Hydrocodone.BT, hydrocodone bitartrate], in series [5] (Example 6, FIG. 11), the “hydrocodone AUC, higher than Ibu-HC” value is “approximately 300%” and the “hydrocodone Cmax, higher than Ibu-HC” value is listed as approximately 525%.
